Assay results published in patent US11152578B2, “Sulfonium salts of DNTT and related compounds as soluble photocleavable precursors for organic semiconductors for use in organic field-effect transistors” (Clap Co., Ltd., priority 2017, dated 2021).
Where two headings read alike, the source gives them in different places.

How the values were obtained:
[1] = Solubility in various solvents at 25° C.; format: physicochemical; details: organic solvent or mixture
Experimental: The solubility of the compound 1Aa at 25° C. was compared to the solubility of compound 2Aa in various solvents.

[2] = background statement, no solvent given; cited from earlier work
[3] = CH3CN, read-out: solubility in CH3CN
[4] = CHCl3, read-out: solubility in CHCl3
[5] = DMF, read-out: solubility in DMF

| Compound | solubility [1, 3] [µg/mL] | solubility [1, 4] [µg/mL] | solubility [1, 5] [µg/mL] | solubility (in words) [2] |
| --- | --- | --- | --- | --- |
| c1ccc2cc3c(cc2c1)sc1c2cc4ccccc4cc2sc31 [Compound 2Aa, dinaphtho[2,3-b:2′,3′-f]thieno[3,2-b]thiophene] | < 1000 | < 1000 | < 1000 | low solubility |
| CCC(C)(C)c1ccc(-[s+]2c3cc4ccccc4cc3c3sc4cc5ccccc5cc4c32)cc1.F[B-](F)(F)F (stereo not shown) [Compound 1Aa] | 5000 | 5000 | 8000 |  |
